Measurements as given in patent USRE47689E1, “Compounds for treating spinal muscular atrophy” (PTC Therapeutics, Inc., priority 2011, dated 2019).
Where two headings read alike, the source gives them in different places.

Key:
[1] = test system: SMN2 minigene (full length SMN2 minigene mRNA containing SMN2 exon 7); test: SMN2 minigene mRNA splicing RT-qPCR assay in cultured cells; format: cell-based, human; conditions: Homo sapiens, HEK293-H, read-out: EC1.5x for production of full length SMN2 mRNA
How it was run: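 HEK293H cells stably carrying the SMN2-A minigene treated 24 h at 37° C with compound (DMSO, 200× stock), then lysed. Multiplex RT-qPCR (SMN primers 0.4 μM final; 40 cycles) measures full-length exon 7-containing minigene mRNA, normalized to GAPDH and to vehicle; EC1.5x derived and binned by stars.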

Smn protein = Smn protein assay in cultured cells (SMN HTRF); format: cell-based, human; conditions: for EC1.5x (concentration giving 1.5-fold Smn protein increase): read-out: EC1.5x for Smn protein expression
How it was run: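 Lysates in RIPA with protease inhibitors are incubated overnight at room temperature with HTRF anti-SMN antibodies. EC1.5x is derived from fold increase in ΔF over vehicle.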

[2] = HEK293H cells stably transfected with SMN2-A minigene, 24 hours, 7-point concentration curve, 1.5-fold relative to vehicle-treated cells
[3] = SMA Type 1 patient fibroblast cells (GM03813), 48 hours, 7-point concentration curve, SMN HTRF, concentration producing 1.5 times Smn protein vs DMSO vehicle control
[4] = SMA patient fibroblast cells, 48 hours, 7-point concentration data, fold increase relative to vehicle control (SMN HTRF)

Structure (SMILES) | EC (1.5-fold) [1, 2] | melting point | EC1.5x (concentration giving 1.5-fold Smn protein increase) (Smn protein; [3]) | maximum fold (Fold) increase of Smn protein (Smn protein; [4]) | EC (1.5-fold) ([1]; 24 h) | maximum fold (Fold) increase of Smn protein (Smn protein) | EC1.5x (concentration giving 1.5-fold Smn protein increase) (Smn protein)
COc1cccn2cc(-c3cc4ccc(N5C[C@@H](C)N[C@@H](C)C5)cc4oc3=O)nc12 [Compound 418, 7-[(3R,5 S)-3,5-dimethylpiperazin-1-yl]-3-(8-methoxyimidazo[1,2-a]pyridin-2-yl)-2H-chromen-2-one] | 1 to 3 µM | 184 to 186 °C | 300 to 1000 nM | **** (fold increase between >1.5 and ≤1.65) | – | – | –
COc1cccn2cc(-c3cc4ccc(N5CCCN(C)CC5)cc4oc3=O)nc12 [Compound 419, 3-(8-methoxyimidazo[1,2-a]pyridin-2-yl)-7-(4-methyl-1,4-diazepan-1-yl)-2H-chromen-2-one] | 0.3 to 1 µM | 212 to 215 °C | – | ** (fold increase between >1.2 and ≤1.35) | – | – | –
Cc1cc(F)c2nc(-c3cc4ccc(N5CCN[C@H](C)C5)cc4oc3=O)cn2c1 [Compound 420, 3-(8-fluoro-6-methylimidazo[1,2-a]pyridin-2-yl)-7-[(3R)-3-methylpiperazin-1-yl]-2H-chromen-2-one] | < 0.1 µM | 246 to 254 °C | < 300 nM | **** (fold increase between >1.5 and ≤1.65) | – | – | –
CN1CCN(c2cc(F)c3cc(-c4cn5ccccc5n4)c(=O)oc3c2)CC1 [Compound 422, 5-fluoro-3-(imidazo[1,2-a]pyridin-2-yl)-7-(4-methylpiperazin-1-yl)-2H-chromen-2-one] | 0.3 to 1 µM | 263 to 269 °C | – | ** (fold increase between >1.2 and ≤1.35) | – | – | –
Cc1cccn2cc(-c3cc4c(F)cc(N5CCN(C)CC5)cc4oc3=O)nc12 [Compound 423, 5-fluoro-3-(8-methylimidazo[1,2-a]pyridin-2-yl)-7-(4-methylpiperazin-1-yl)-2H-chromen-2-one] | 1 to 3 µM | 232 to 237 °C | – | * (maximum fold increase of ≤1.2) | – | – | –
Cc1ccn2cc(-c3cc4c(F)cc(N5CCNCC5)cc4oc3=O)nc2c1 [Compound 424, 5-fluoro-3-(7-methylimidazo[1,2-a]pyridin-2-yl)-7-(piperazin-1-yl)-2H-chromen-2-one] | 0.1 to 0.3 µM | 268 to 278 °C | < 300 nM | *** (fold increase between >1.35 and ≤1.5) | – | – | –
Cc1cc(C)c2nc(-c3cc4ccc(N5CCN[C@@H](C)C5)cc4oc3=O)cn2c1 [Compound 425, 3-(6,8-dimethylimidazo[1,2-a]pyridin-2-yl)-7-[(3S)-3-methylpiperazin-1-yl]-2H-chromen-2-one] | 0.1 to 0.3 µM | 221 to 226 °C | 1000 to 3000 nM | *** (fold increase between >1.35 and ≤1.5) | – | – | –
Cc1cc(F)c2nc(-c3cc4ccc(N5CCNC(C)(C)C5)cc4oc3=O)cn2c1 [Compound 426, 7-(3,3-dimethylpiperazin-1-yl)-3-(8-fluoro-6-methylimidazo[1,2-a]pyridin-2-yl)-2H-chromen-2-one] | 0.1 to 0.3 µM | 275 to 284 °C | – | *** (fold increase between >1.35 and ≤1.5) | – | – | –
Cc1cc(F)c2nc(-c3cc4ccc(N5CCCNCC5)cc4oc3=O)cn2c1 [Compound 427, 7-(1,4-diazepan-1-yl)-3-(8-fluoro-6-methylimidazo[1,2-a]pyridin-2-yl)-2H-chromen-2-one] | 0.3 to 1 µM | 242 to 252 °C | – | *** (fold increase between >1.35 and ≤1.5) | – | – | –
CCc1cn2cc(-c3cc4ccc(N5CCNCC5)cc4oc3=O)nc2s1 [Compound 428, 3-(2-ethylimidazo[2,1-b][1,3]thiazol-6-yl)-7-(piperazin-1-yl)-2H-chromen-2-one] | 1 to 3 µM | 231 to 236 °C | – | * (maximum fold increase of ≤1.2) | – | – | –
CCc1cn2cc(-c3cc4ccc(N5CCCNCC5)cc4oc3=O)nc2s1 [Compound 430, 7-(1,4-diazepan-1-yl)-3-(2-ethylimidazo[2,1-b][1,3]thiazol-6-yl)-2H-chromen-2-one] | 1 to 3 µM | 185 to 189 °C | – | * (maximum fold increase of ≤1.2) | – | – | –
CCc1cn2cc(-c3cc4ccc(N5CCCN(C)CC5)cc4oc3=O)nc2s1 [Compound 431, 3-(2-ethylimidazo[2,1-b][1,3]thiazol-6-yl)-7-(4-methyl-1,4-diazepan-1-yl)-2H-chromen-2-one] | 1 to 3 µM | 188 to 191 °C | – | * (maximum fold increase of ≤1.2) | – | – | –
COc1ccn2cc(-c3cc4ccc(N5C[C@@H](C)N[C@@H](C)C5)cc4oc3=O)nc2c1 [Compound 432, 7-[(3R,5S)-3,5-dimethylpiperazin-1-yl]-3-(7-methoxyimidazo[1,2-a]pyridin-2-yl)-2H-chromen-2-one] | 1 to 3 µM | 225 to 230 °C | – | ** (fold increase between >1.2 and ≤1.35) | – | – | –
COc1ccn2cc(-c3cc4ccc(N5CCN[C@@H](C)C5)cc4oc3=O)nc2c1 [Compound 434, 3-(7-methoxyimidazo[1,2-a]pyridin-2-yl)-7-[(3S)-3-methylpiperazin-1-yl]-2H-chromen-2-one] | 1 to 3 µM | 250 to 256 °C | – | ** (fold increase between >1.2 and ≤1.35) | – | – | –
COc1ccn2cc(-c3cc4ccc(N5CCN(C)CC5)cc4oc3=O)nc2c1 [Compound 435, 3-(7-methoxyimidazo[1,2-a]pyridin-2-yl)-7-(4-methylpiperazin-1-yl)-2H-chromen-2-one] | 1 to 3 µM | 251 to 259 °C | – | * (maximum fold increase of ≤1.2) | – | – | –
COc1ccn2cc(-c3cc4ccc(N5CCCN(C)CC5)cc4oc3=O)nc2c1 [Compound 436, 3-(7-methoxyimidazo[1,2-a]pyridin-2-yl)-7-(4-methyl-1,4-diazepan-1-yl)-2H-chromen-2-one] | 3 to 30 µM | 198 to 207 °C | – | * (maximum fold increase of ≤1.2) | – | – | –
CN(C)[C@H]1[C@@H]2CN(c3ccc4cc(-c5cn6ccsc6n5)c(=O)oc4c3)C[C@@H]21 [Compound 437, 7-[(1R,5S,6s)-6-(dimethylamino)-3-azabicyclo[3.1.0]hex-3-yl]-3-(imidazo[2,1-b][1,3]thiazol-6-yl)-2H-chromen-2-one] | 1 to 3 µM | 233 to 235 °C | – | ** (fold increase between >1.2 and ≤1.35) | – | – | –
O=c1oc2cc(N3CCN4CCC3CC4)ccc2cc1-c1cn2ccsc2n1 [Compound 438, 7-(1,4-diazabicyclo[3.2.2]non-4-yl)-3-(imidazo[2,1-b][1,3]thiazol-6-yl)-2H-chromen-2-one] | – | > 300 °C | – | – | 0.1 to 0.3 µM | *** (key: *: maximum fold increase of ≤1.2; **: fold increase between >1.2 and ≤1.35; ***: fold increase between >1.35 and ≤1.5; ****: fold increase between >1.5 and ≤1.65; *****: fold increase >1.65) | 1000 to 3000 nM
